Test results published in patent publication US4162253A, “Acaricidal agents” (Pfizer Inc., priority 1975, dated 1979).

Tested on: Adult Boophilus microplus
Assay: Topical application test on fully engorged adult Boophilus microplus ticks; overall reduction in anticipated reproduction (eggs laid and hatching)
Type: in vivo
Settings: Rhipicephalus microplus, read-out: In Vitro Activity (topical application) vs. Adult Boophilus microplus % Effect; for inhibition at 0.5 µg/tick: 0.5 μg/tick; for inhibition at 1 µg/tick: 1 μg/tick; for inhibition at 2 µg/tick: 2 μg/tick; for inhibition at 4 µg/tick: 4 μg/tick; for inhibition at 8 µg/tick: 8 μg/tick; for inhibition at 10 µg/tick: 10 μg/tick
Method: In one test, five freshly collected, fully engorged Boophilus microplus adult ticks are used for each acaricidal compound. Using a micro-pipette, 10 micro-liters of a solution containing 10 micro-grams of the acaricidal compound in ethanol or acetone, is applied to the dorsal surface of each of the ticks. The treated ticks are placed in weighted 1"×2" glass vials, weighted and stored at 26° C. and 80% relative humidity in plastic boxes for two weeks. The ticks are then removed from the vials and the vials weighted to give the weight of eggs laid by the ticks. Any reduction in the egg laying of the treated ticks is caculated as a percentage of the eggs laid by untreated control ticks.
The eggs are returned to the incubator for a further 3 weeks after which time the percentage of eggs hatching is estimated.
The percentage effect is calculated as the overall reduction in the anticipated reproduction of the ticks using the weight of eggs laid and the percentage of eggs hatching.
The test may be repeated using smaller amounts of the acaricidal compound for sufficiently active compounds.
The activity of many of the compounds of the Examples detailed hereinafter against the tick Boophilus microplus has been determined.

For `CCCCCCCCCCCCCCCC[N+]1=C2SC=C(c3ccc(F)cc3)N2CCCC1` [Example 41], which inhibition at 0.5 µg/tick is on record?
The inhibition at 0.5 µg/tick was 5%.

And the inhibition at 1 µg/tick?
The inhibition at 1 µg/tick was 18%.

What about the inhibition at 2 µg/tick of the same molecule?
Its inhibition at 2 µg/tick is 18%.

What about the inhibition at 4 µg/tick of the same molecule?
The inhibition at 4 µg/tick was 16%.

And the inhibition at 8 µg/tick?
Its inhibition at 8 µg/tick is 43%.

What about the inhibition at 10 µg/tick of the same molecule?
Its inhibition at 10 µg/tick is 92%.

Which inhibition at 10 µg/tick does the source give for `CCCCCCCCCCCCCCCCCC[N+]1=C2SC=C(c3ccccc3)N2CCCC1` [Example 22] here?
Its inhibition at 10 µg/tick is 57%.

For `CCCCCCCCCCCCCCCCC[N+]1=C2SC(C)=C(c3ccccc3)N2CCC1` [Example 15], which inhibition at 0.5 µg/tick is on record?
The inhibition at 0.5 µg/tick was 11%.

What about the inhibition at 1 µg/tick of the same molecule?
The inhibition at 1 µg/tick was 9%.

And the inhibition at 2 µg/tick?
Its inhibition at 2 µg/tick is 29%.

And the inhibition at 4 µg/tick?
The inhibition at 4 µg/tick was 99.9%.

What about the inhibition at 8 µg/tick of the same molecule?
Its inhibition at 8 µg/tick is 100%.

And the inhibition at 10 µg/tick?
The inhibition at 10 µg/tick was 100%.
